Test results: patent publication US8273770B2, “5-pyridinone substituted indazoles” (Albany Molecular Research, Inc., priority 2007, dated 2012)
Where a name gives a salt, the structure may show the parent alone.

Tested on: not given
Assay: not given
Details: not given

**Q.** With `COc1ccc(-c2ccn(-c3ccc4c(cnn4CCN4CCCC4)c3)c(=O)c2)c(Cl)c1.Cl` as the molecule, how does the melting point read?
**A.** Its melting point is 225 to 235 °C.

**Q.** For `CN(C)C[C@@H](O)Cn1ncc2cc(-n3ccc(-c4ccc(C(F)(F)F)cc4)cc3=O)ccc21.Cl`, which melting point is on record?
**A.** The melting point was 210 to 213 °C.

**Q.** For `CC1CC=C(c2ccn(-c3ccc4c(cnn4CCN4CCCC4)c3)c(=O)c2)CC1.Cl` (stereo not shown), which melting point is on record?
**A.** Its melting point is 256 to 260 °C.

**Q.** Which melting point does the source give for `O=c1cc(-c2cccc3ccccc23)ccn1-c1ccc2c(cnn2CCN2CCCC2)c1` (as salt: hydrochloride) here?
**A.** The melting point was 128 to 133 °C.

**Q.** For `Cl.O=c1cc(-c2ccc(Cl)cc2F)ccn1-c1ccc2c(cnn2CCN2CCCC2)c1`, which melting point is on record?
**A.** The melting point was 215 to 230 °C.

**Q.** Which melting point does the source give for `Cl.O=c1cc(-c2ccc(C(F)(F)F)cc2)ccn1-c1ccc2c(cnn2C[C@@H]2CCCN2)c1` here?
**A.** The melting point was 241 to 245 °C.

**Q.** With `Cl.O=c1cc(-c2ccc(C(F)(F)F)cc2)ccn1-c1ccc2c(cnn2CCN2CCNCC2)c1` as the molecule, how does the melting point read?
**A.** The melting point was 222 to 224 °C (dec.).

**Q.** Which melting point does the source give for `CC1CCC(c2ccn(-c3ccc4c(cnn4CCN4CCCC4)c3)c(=O)c2)CC1.Cl` (stereo not shown) here?
**A.** The melting point was 80 to 85 °C.

**Q.** For `CC(C)Oc1ccc(-c2ccn(-c3ccc4c(cnn4CCN4CCCC4)c3)c(=O)c2)cc1.Cl`, which melting point is on record?
**A.** The melting point was 235 to 250 °C.

**Q.** With `Cl.N#Cc1cc(F)ccc1-c1ccn(-c2ccc3c(cnn3CCN3CCCC3)c2)c(=O)c1` as the molecule, how does the melting point read?
**A.** Its melting point is 81 to 86 °C.

**Q.** Which melting point does the source give for `O=c1cc(-c2ccc3ccccc3n2)ccn1-c1ccc2c(cnn2CCN2CCCC2)c1` (as salt: hydrochloride) here?
**A.** Its melting point is 220 to 225 °C.

**Q.** For `COc1ccc2[nH]c(-c3ccn(-c4ccc5c(cnn5CCN5CCCC5)c4)c(=O)c3)cc2c1.Cl`, which melting point is on record?
**A.** The melting point was 275 to 280 °C.

**Q.** For `Cl.NCCCn1ncc2cc(-n3ccc(-c4ccc(C(F)(F)F)cc4)cc3=O)ccc21`, which melting point is on record?
**A.** Its melting point is 222 to 224 °C (dec.).

**Q.** Which melting point does the source give for `CN(C)CCn1ncc2cc(-n3ccc(-c4ccc(C(F)(F)F)cc4)cc3=O)ccc21.Cl` here?
**A.** Its melting point is 222 to 224 °C.

**Q.** For `Cc1cc(OCc2ccccc2)ccc1-c1ccn(-c2ccc3c(cnn3CCN3CCCC3)c2)c(=O)c1.Cl`, which melting point is on record?
**A.** Its melting point is 75 to 85 °C.

**Q.** Which melting point does the source give for `Cc1cc(OC(F)(F)F)ccc1-c1ccn(-c2ccc3c(cnn3CCN3CCCC3)c2)c(=O)c1.Cl` here?
**A.** The melting point was 185 to 195 °C.

**Q.** Which melting point does the source give for `Cl.O=c1cc(-c2ccc(-n3cccn3)cc2)ccn1-c1ccc2c(cnn2CCN2CCCC2)c1` here?
**A.** The melting point was 271 to 275 °C.

**Q.** Which melting point does the source give for `COc1ccc(-c2ccn(-c3ccc4c(cnn4CCN4CCCC4)c3)c(=O)c2)cc1.Cl` here?
**A.** Its melting point is 105 to 110 °C.

**Q.** With `Cl.O=c1cc(-c2cc3ccccc3s2)ccn1-c1ccc2c(cnn2CCN2CCCC2)c1` as the molecule, how does the melting point read?
**A.** Its melting point is 260 to 264 °C.

**Q.** For `CCOc1ccc(-c2ccn(-c3ccc4c(cnn4CCN4CCCC4)c3)c(=O)c2)cc1.Cl`, which melting point is on record?
**A.** Its melting point is 255 to 265 °C.

**Q.** For `COc1ccc(-c2ccn(-c3ccc4c(cnn4CCN4CCCC4)c3)c(=O)c2)c(F)c1.Cl`, which melting point is on record?
**A.** The melting point was 230 to 240 °C.

**Q.** For `Cl.N#Cc1ccc(-c2ccn(-c3ccc4c(cnn4CCN4CCCC4)c3)c(=O)c2)cc1`, which melting point is on record?
**A.** Its melting point is 92 to 96 °C.

**Q.** Which melting point does the source give for `Cl.O=c1cc(-c2ccc(C(F)(F)F)cn2)ccn1-c1ccc2c(cnn2CCCN2CCCC2)c1` here?
**A.** The melting point was 110 to 120 °C.

**Q.** Which melting point does the source give for `Cl.O=c1cc(-c2ccc(F)cc2F)ccn1-c1ccc2c(cnn2CCN2CCCC2)c1` here?
**A.** The melting point was 235 to 255 °C.

**Q.** With `COc1cc(Cl)ccc1-c1ccn(-c2ccc3c(cnn3CCN3CCCC3)c2)c(=O)c1.Cl` as the molecule, how does the melting point read?
**A.** The melting point was 248 to 256 °C.

**Q.** With `Cl.O=c1cc(-c2ccc(Cl)cc2)ccn1-c1ccc2c(cnn2CCN2CCCC2)c1` as the molecule, how does the melting point read?
**A.** The melting point was 255 to 260 °C (dec.).

**Q.** Which melting point does the source give for `Cl.O=c1cc(-c2ccc(C(F)(F)F)cc2)ccn1-c1ccc2c(cnn2CCN2CCOCC2)c1` here?
**A.** Its melting point is 248 to 250 °C (dec.).

**Q.** Which melting point does the source give for `Cl.O=c1cc(-c2ccc(OC(F)(F)F)cc2F)ccn1-c1ccc2c(cnn2CCN2CCCC2)c1` here?
**A.** Its melting point is 215 to 225 °C.

**Q.** With `CCCCOc1ccc(-c2ccn(-c3ccc4c(cnn4CCN4CCCC4)c3)c(=O)c2)c(C)c1.Cl` as the molecule, how does the melting point read?
**A.** The melting point was 80 to 95 °C.

**Q.** With `Cl.O=c1cc(-c2ccc(F)cc2)ccn1-c1ccc2c(cnn2CCN2CCCC2)c1` as the molecule, how does the melting point read?
**A.** Its melting point is 115 to 120 °C.

**Q.** Which melting point does the source give for `Cc1ccccc1-c1ccn(-c2ccc3c(cnn3CCN3CCCC3)c2)c(=O)c1.Cl` here?
**A.** The melting point was 80 to 95 °C.

**Q.** Which melting point does the source give for `Cl.O=c1cc(-c2ccc3c(c2)OCO3)ccn1-c1ccc2c(cnn2CCN2CCCC2)c1` here?
**A.** Its melting point is 75 to 85 °C.

**Q.** Which melting point does the source give for `Cl.O=c1cc(-c2cccc(Cl)c2)ccn1-c1ccc2c(cnn2CCN2CCCC2)c1` here?
**A.** The melting point was 118 to 125 °C.

**Q.** Which melting point does the source give for `Cl.Cn1ncc2cc(-c3ccn(-c4ccc5c(cnn5CCN5CCCC5)c4)c(=O)c3)ccc21` here?
**A.** Its melting point is 55 to 65 °C.

**Q.** Which melting point does the source give for `Cl.O=c1cc(-c2ccc(C(F)(F)F)cc2F)ccn1-c1ccc2c(cnn2CCN2CCCC2)c1` here?
**A.** The melting point was 80 to 95 °C.

**Q.** For `Cc1ccc(-c2ccn(-c3ccc4c(cnn4CCN4CCCC4)c3)c(=O)c2)cc1.Cl`, which melting point is on record?
**A.** Its melting point is 240 to 246 °C.

**Q.** With `CN(C)CCCn1ncc2cc(-n3ccc(-c4ccc(C(F)(F)F)cc4)cc3=O)ccc21.Cl` as the molecule, how does the melting point read?
**A.** Its melting point is 209 to 211 °C.

**Q.** With `Cl.O=c1cc(-c2ccc3ccccc3c2)ccn1-c1ccc2c(cnn2CCN2CCCC2)c1` as the molecule, how does the melting point read?
**A.** Its melting point is 128 to 134 °C.

**Q.** Which melting point does the source give for `Cl.O=c1cc(-c2ccc(OC(F)(F)F)cc2)ccn1-c1ccc2c(cnn2CCN2CCCC2)c1` here?
**A.** Its melting point is 202 to 209 °C.

**Q.** Which melting point does the source give for `Cl.O=c1cc(-c2ccc(N3CCCCC3)cc2)ccn1-c1ccc2c(cnn2CCN2CCCC2)c1` here?
**A.** The melting point was 80 to 90 °C.

**Q.** Which melting point does the source give for `COc1ccc(-c2ccn(-c3ccc4c(cnn4CCN4CCCC4)c3)c(=O)c2)c(C)c1.Cl` here?
**A.** Its melting point is 205 to 215 °C.

**Q.** For `COc1ccc(-c2ccn(-c3ccc4c(cnn4CCN4CCCC4)c3)c(=O)c2)c(OC)c1.Cl`, which melting point is on record?
**A.** Its melting point is 95 to 115 °C.

**Q.** Which melting point does the source give for `Cl.O=c1cc(-c2ccc(C(F)(F)F)cc2C(F)(F)F)ccn1-c1ccc2c(cnn2CCN2CCCC2)c1` here?
**A.** The melting point was 235 to 245 °C.

**Q.** Which melting point does the source give for `Cl.O=c1cc(-c2cc3ccccc3o2)ccn1-c1ccc2c(cnn2CCN2CCCC2)c1` here?
**A.** Its melting point is 256 to 260 °C.

**Q.** With `Cc1ccc2oc(-c3ccn(-c4ccc5c(cnn5CCN5CCCC5)c4)c(=O)c3)nc2c1.Cl` as the molecule, how does the melting point read?
**A.** The melting point was 270 to 280 °C.

**Q.** For `Cl.O=c1cc(-c2ccc(C(F)(F)F)cc2)ccn1-c1ccc2c(cnn2CCN2CC3CC2CO3)c1` (stereo not shown), which melting point is on record?
**A.** Its melting point is 148 to 150 °C.

**Q.** For `Cc1ccc(-c2ccn(-c3ccc4c(cnn4CCN4CCCC4)c3)c(=O)c2)nc1.Cl`, which melting point is on record?
**A.** The melting point was 230 to 234 °C.

**Q.** With `Cl.O=c1cc(-c2ccc(C(F)(F)F)cc2)ccn1-c1ccc2c(cnn2C[C@H](O)CN2CCCC2)c1` as the molecule, how does the melting point read?
**A.** Its melting point is 116 to 119 °C.

Target: T1, human MCH1 receptor (Homo sapiens, UniProt Q99705)
T1 construct: host or cells: CHO cells (assay I)
Assay: MCH1 binding assay I or II (radioligand binding, membranes of CHO cells expressing the receptor)
Details: estimated based on the measured percent inhibition
Excerpt: Binding Assay I for Human Melanin-Concentrating Hormone (MCH1) Receptor
Evaluation of the affinity of compounds for the human MCH1 receptor was accomplished in transfected Chinese Hamster Ovary (CHO) cells determined in a radioligand binding assay, as described in MacDonald et al., “Molecular characterization of the melanin-concentrating hormone/receptor complex: identification of critical residues involved in binding and activation”, Mol Pharmacol., 58:217 (2000). […] Nonspecific binding was determined in the presence of 0.1 μM MCH. […] The filters were dried, then counted for radioactivity in a scintillation counter (Topcount, Packard) using a scintillation cocktail (Microscint 0, Packard).
The results are expressed as a percent inhibition of the control radioligand specific binding. The IC50 value (concentration causing a half-maximal inhibition of control specific binding) and Hill coefficient (nH) were determined by non-linear regression analysis of the competition curve using Hill equation curve fitting. The inhibition constant (Ki) was calculated from the Cheng Prusoff equation: (Ki=IC50/(1+(L/KD)), where L=concentration of radioligand in the assay, and KD=affinity of the radioligand for the receptor). […]
The results are expressed as a percent inhibition of the control radioligand specific binding. […]

T1 sequence (Q99705 whole entry): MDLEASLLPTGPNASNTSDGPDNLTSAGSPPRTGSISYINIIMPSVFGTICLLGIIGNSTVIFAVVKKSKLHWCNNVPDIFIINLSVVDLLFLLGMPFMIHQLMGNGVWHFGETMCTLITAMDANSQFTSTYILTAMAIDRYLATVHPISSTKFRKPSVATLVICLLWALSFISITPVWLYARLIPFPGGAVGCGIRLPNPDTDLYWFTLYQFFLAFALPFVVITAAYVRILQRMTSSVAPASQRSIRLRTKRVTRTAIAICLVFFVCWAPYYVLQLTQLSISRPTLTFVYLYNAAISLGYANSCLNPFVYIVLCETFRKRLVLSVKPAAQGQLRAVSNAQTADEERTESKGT

**Q.** Which Ki does the source give for `COc1ccc2c(c1)cc(-c1ccn(-c3ccc4c(cnn4CCN4CCCC4)c3)c(=O)c1)n2C` [Example 65, 4-(5-Methoxy-1-methyl-1H-indol-2-yl)-1-(1-(2-(pyrrolidin-1-yl)ethyl)-1H-indazol-5-yl)pyridin-2(1H)-one dihydrochloride] here?
**A.** The Ki was about 3 µM.
